Laboratory results from US20200339544A1 (JOINT STOCK COMPANY "BIOCAD", priority 2017, published 2020).
Like-named read-outs stand apart in the source and are kept apart here.

Columns and labels:
HepG2 cells = assay: General cytotoxicity on HepG2 cells; format: cell-based; conditions: therapeutic index, CC50 HepG2 / IC50 H1975
Method in brief: (§1)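 HepG2 cells seeded at 2*10^4 cells per well and compounds added in DMEM with 2% FBS for 72 h at 37 °C. Viability read with Alamar Blue and CC50 derived as for IC50. Therapeutic index taken as HepG2 CC50 over H1975 IC50.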

[1] = General cytotoxicity on HepG2 cells; format: cell-based; conditions: human; general cytotoxicity, HepG2 cells, 72 hours, average of several tests
Method in brief: as §1

WT EGFR (Wild-Type EGFR) = biological target: T1, WT EGFR (Wild-Type EGFR) (Homo sapiens, UniProt P00533); assay: Inhibition of WT EGFR kinase activity (ADP-Glo); format: biochemical
T1 construct: purchased SignalChem
Method in brief: (§2)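 Recombinant WT or double-mutant EGFR was incubated with a solution of 0.5 mg/mL peptide substrate and 50 μM ATP for 180 minutes at 37° C. Kinase activity was detected by ADP-Glo luminescence. IC50 values came from a four-parameter logistic fit.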

[2] = Chemical stability in simulated gastric fluid (SGF); format: physicochemical; conditions: SGF without enzymes, pH 1,4; 10 μm; 2 hours at 37° C.; substance amount remaining
Description: (§3) 1) Determination of chemical stability in simulated intestinal fluid, simulated gastric fluid and human blood plasma.
(§4) SGF concentrate without enzymes, pH=1,4 (Sigma Ireland, cat #01651) was used as simulated gastric fluid. Initial candidate solution (10 mM in DMSO) was diluted with a SGF working solution to a concentration of 10 μm (test solution). The test solution was incubated in a dry block thermostat for 2 hours at 37° C. SIF concentrate without enzymes, pH=6.5 (Sigma Ireland, cat #55331) was used as simulated intestinal fluid. Initial candidate solution (10 mM in DMSO) was diluted with a SIF working solution to a concentration of 10 μm (test solution). The test solution was incubated in a dry block thermostat for 2 hours at 37° C. HPLC with Agilent 1200 liquid chromatography system (Agilent, USA) was employed to determine peak areas of the compounds in test samples, said peak areas corresponding to the initial test time (prior to incubation) and the final test time (after incubation in a dry block thermostat for 2 hours at 37° C.). We used gradient elution (1 mL/min flow rate). Substance amount in % in a sample after thermostatting was determined.
(§5) The stability of the compounds was estimated.

[3] = Chemical stability in simulated intestinal fluid (SIF); format: physicochemical; conditions: SIF without enzymes, pH 6.5; 10 μm; 2 hours at 37° C.; substance amount remaining
Description: as §3, §4, §5

[4] = test system: A549 (lung adenocarcinoma, WT); assay: Antiproliferative activity on A549 cells (Alamar Blue); format: cell-based; conditions: Homo sapiens, antiproliferative test
Method in brief: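 Cells seeded at 5*10^3/well in RPMI-1640 with 2% FBS, attached 16-18 h at 37° C, then exposed to compounds (≤1% DMSO) for 72 h. Alamar Blue added for 3-5 h; fluorescence read at 540/590 nm. IC50 from four-parameter logistic fit.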

[5] = Chemical stability in human blood plasma; format: in vitro ADME; conditions: pooled human blood plasma; 10 μm; 4 hours at 37° C.; substance amount remaining
Method in brief: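 Pooled plasma from ten healthy donors was spiked to 10 μM from a 10 mM DMSO stock and held 4 h at 37 °C. After acetonitrile protein precipitation, HPLC peak areas before and after incubation gave the percentage of compound remaining.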

[6] = test system: H1975 (lung adenocarcinoma, DM, L828R/T790M); assay: Antiproliferative activity on H1975 cells (Alamar Blue); format: cell-based; conditions: for IC50: Homo sapiens, NCI-H1975, H1975 cells; for SI IC50(A549)/IC50(DM): selectivity index, A549 vs H1975 cells
Method in brief: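 H1975 cells (15*10^3/well) attached 16-18 h in RPMI-1640 with 2% FBS, then exposed to compounds (≤1% DMSO final) for 72 h at 37 °C. Viability by Alamar Blue fluorescence (Ex 540/Em 590 nm) after 3-5 h; IC50 from four-parameter logistic fit.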

[7] = biological target: T2, DM EGFR (DoubleMutantEGFR, L828R/T790M) (Homo sapiens, UniProt P00533, L858R/T790M); assay: Inhibition of DM EGFR kinase activity (ADP-Glo); format: biochemical; conditions: for IC50: inhibition of kinase activity, EGFR DM (L828R/T790M); for SI, IC50(WT)/IC50(DM): selectivity index, kinase EGFR WT vs EGFR DM
T2 construct: purchased SignalChem
Method in brief: as §2

[8] = Enzyme stability in human liver S9 fractions; format: in vitro ADME; conditions: 0.5 mg/mL pooled human liver S9 fractions; 10 μM compound; 37° C.; pH 7.4; read-out: Stability in liver S9 fractions, Clint
Method in brief: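 Compound at 10 μM was incubated at 37 °C with 0.5 mg/mL pooled human liver S9, 2 mM β-NAD and 4 mM MgCl2 in 0.1 M sodium phosphate, pH 7.4, then quenched with acetonitrile and analysed chromatographically. T½ and CLint were derived from the slope of log peak area versus time.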

[9] = test system: HCC827 (lung adenocarcinoma, SM, exon19delE746-A750); assay: Antiproliferative activity on HCC827 cells (Alamar Blue); format: cell-based; conditions: Homo sapiens, antiproliferative test
Description: Antiproliferative activity of EGFR inhibitors (Tables 15 and 16) was measured in cell-based bioassay on continuous epithelial cell cultures: A549 (lung adenocarcinoma, ATCC® CRM-CCL-185™—WT), HCC827 (lung adenocarcinoma, ATCC® CRL-2868™—SM (SingleMutantEGFR, exon19delE746-A750)) and H1975 (lung adenocarcinoma, ATCC® CRL-5908™—DM (DoubleMutantEGFR, L828R/T790M)) using cell viability reagent Alamar Blue (ThermoFisher, # DAL1100). Cells were cultured in 10% FBS-supplemented (Gibco, #16140071) RPMI-1640 (PanEco, S330p) for at least 1 passage after thawing, washed with PBS and passaged in 96-well culture plates (3599, Corning) with RPMI-1640 growth medium supplemented with 2% FBS in an amount of 5*10^3 cells/well for A549, 10*10^3 cells/well for HCC827 and 15*10^3 cells/well for H1975 in 100 μL, and incubated at 37° C. in an incubator (Thermo Forma, USA) under 5% of CO2 for 16-18 h for cell attachment.
The test compounds were dissolved in DMSO in the selected range of concentrations and transferred to RPMI-1640 medium (PanEco, S330p) supplemented with 2% FBS. After adding 50 μl of the prepared dilutions to the cells, the incubation mixture contained the final concentrations of the test substances and no more than 1% DMSO. The plates were Incubated at 37° C. for 72 h. After incubation, 15 μl of Alamar Blue vital dye (ThermoFisher, # DAL1100) was added to each well. The plates were shaken on an orbital shaker (Biosan, Latvia) and further incubated for 3-5 h in a CO2 incubator (Thermo Forma, USA). Number of living cells was estimated using a plate spectrophotometer Infinite M200Pro, (Tecan, Switzerland) measuring fluorescent signal at the excitation wavelength (λEx) of 540 nm and emission wavelength (λEm) of 590 nm.
IC50 was calculated using Magellan 7.2 software (Tecan, Switzerland) approximating experimental points by four-parameter logistic model with the optimization by Levenberg-Marquardt.

[10] = average values obtained in several tests, Table 16, read-out: H1975 (DM) IC50
[11] = antiproliferative test, Table 15, read-out: IC50 H1975 (DM)

Compound | TI, CC50/IC50 (HepG2 cells) | CC50 at 72 h [1] [nM] | IC50 (WT EGFR (Wild-Type EGFR)) [nM] | Stability in SGF, % [2] [%] | Stability in SIF, % [3] [%] | IC50 [4] [nM] | Stability in blood plasma, % [5] [%] | IC50 [6, 10] [nM] | IC50 [6, 11] [nM] | SI IC50(A549)/IC50(DM) [6] | IC50 [7] [nM] | SI, IC50(WT)/IC50(DM) [7] | Intrinsic clearance in human liver S9 fractions at 10 µM [8] [µL/min/mg] | IC50 [9] [nM]
C=CC(=O)Nc1cc(Nc2nccc(C(=O)c3ccccc3[N+](=O)[O-])n2)c(OC)cc1N(C)CCN(C)C [EGFR_3365_36, N-(2-((2-(dimethylamino)ethyl)(methyl)amino)-4-methoxy-5-((4-(2-nitrobenzoyl)pyrimidin-2-yl)amino)phenyl)acrylamide] | 199 | 36500 | 360 | 100.0 | 100.0 | 73900 | 98.5 | 184 | 184 | 402.37 | 18.9 | 19.05 | – | –
C=CC(=O)Nc1cc(Nc2nccc(C(=O)c3ccc(C)cc3)n2)c(OC)cc1N(C)CCN(C)C [EGFR_3365_64, N-(2-((2-(dimethylamino)ethyl)(methyl)amino)-4-methoxy-5-((4-(4-methylbenzoyl)pyrimidin-2-yl)amino)phenyl)acrylamide] | – | – | – | 100.0 | 100.0 | – | 87.2 | – | – | – | – | – | 16.6 | –
C=CC(=O)Nc1cc(Nc2nccc(C(=O)c3ccc(OC4CCCCC4)cc3)n2)c(OC)cc1N(C)CCN(C)C [EGFR_3365_67, N-(5-((4-(4-(cyclohexyloxy)benzoyl)pyrimidin-2-yl)amino)-2-((2-(dimethylamino)ethyl)(methyl)amino)-4-methoxyphenyl)acrylamide] | 43 | 9460 | 97.5 | – | – | 2470 | 92.8 | 221 | 221 | 11 | 10.5 | 9.27 | 18.7 | 26.3
C=CC(=O)Nc1cc(Nc2nccc(C(=O)c3ccc(OC(C)C)cc3OC(C)C)n2)c(OC)cc1N(C)CCN(C)C [EGFR_3365_71, N-(5-((4-(2,4-diisopropoxybenzoyl)pyrimidin-2-yl)amino)-2-((2-(dimethylamino)ethyl)(methyl)amino)-4-methoxyphenyl)acrylamide] | – | – | – | 100.0 | 100.0 | – | 100.0 | – | – | – | – | – | – | –
C=CC(=O)Nc1cc(Nc2nccc(C(=O)c3ccc(OCC(C)C)cc3)n2)c(OC)cc1N(C)CCN(C)C [EGFR_3365_78, N-(2-((2-(dimethylamino)ethyl)(methyl)amino)-5-((4-(4-isobutoxybenzoyl)pyrimidin-2-yl)amino)-4-methoxyphenyl) acrylamide] | – | – | – | 91.1 | 91.1 | – | 81.7 | – | – | – | – | – | – | –
C=CC(=O)Nc1cc(Nc2nccc(C(=O)c3ccc(-n4ccnc4)cc3)n2)c(OC)cc1N(C)CCN(C)C [EGFR_3365_86, N-(5-((4-(4-(1H-imidazol-1-yl)benzoyl)pyrimidin-2-yl)amino)-2-((2-(dimethylamino)ethyl) (methyl)amino)-4-methoxyphenyl)acrylamide] | – | – | – | 99.7 | 99.4 | – | 100.0 | – | – | – | – | – | – | –
C=CC(=O)Nc1cc(Nc2nccc(C(=O)c3ccc(N4CCN(C)CC4)cc3OC)n2)c(OC)cc1N(C)CCN(C)C [EGFR_3365_120, N-(2-((2-(dimethylamino)ethyl)(methyl)amino)-4-methoxy-5-((4-(2-methoxy-4-(4-methylpiperazin-1-yl)benzoyl)pyrimidin-2-yl)amino)phenyl)acrylamide] | 6514 | 29300 | 30.9 | – | – | 16400 | 100.0 | 4.5 | 4.5 | 3644 | 2.37 | 13.01 | 3.8 | 5.19
C=CC(=O)Nc1cc(Nc2nccc(C(=O)c3ccc(N4CCC(N(C)C)CC4)cc3)n2)c(OC)cc1N(C)CCN(C)C [EGFR_3365_121a, N-(2-((2-(dimethylamino)ethyl)(methyl)amino)-5-((4-(4-(4-(dimethylamino)piperidin-1-yl)benzoyl)pyrimidin-2-yl)amino)-4-methoxyphenyl) acrylamide] | 4649 | 11800 | 29.6 | – | – | 3270 | 99.0 | 2.55 | 2.55 | 1284 | 0.96 | 30.92 | 2.1 | 13.5
